Assay results: PubChem BioAssay (NCI)
Values joined by “and” are separate entries in the source; they are usually repeats but may differ in a detail not shown here. Identical values can stand only once.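 Cells were grown in 96-well plates and exposed to each compound for 48 hours at five concentrations; endpoints were interpolated linearly between bracketing concentrations, or set to the highest concentration if not reached. GI50 is the concentration that inhibits growth by half. The concentration for full growth arrest is given as TGI.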

What was measured:
Assay in all cases: DTP human tumour cell line panel, 48 h
786-0 renal = system: 786-0 renal
A498 renal = system: A498 renal
A549 NSCLC = system: A549 NSCLC
ACHN renal = system: ACHN renal
BT-549 breast = system: BT-549 breast
CAKI-1 renal = system: CAKI-1 renal
CCRF-CEM leukemia = system: CCRF-CEM leukemia
COLO 205 colon = system: COLO 205 colon
DU-145 prostate = system: DU-145 prostate
EKVX NSCLC = system: EKVX NSCLC
HCC-2998 colon = system: HCC-2998 colon
HCT-116 colon = system: HCT-116 colon
HCT-15 colon = system: HCT-15 colon
HL-60(TB) leukemia = system: HL-60(TB) leukemia
HOP-62 NSCLC = system: HOP-62 NSCLC
HOP-92 NSCLC = system: HOP-92 NSCLC
HS 578T breast = system: HS 578T breast
HT29 colon = system: HT29 colon
IGROV1 ovarian = system: IGROV1 ovarian
K-562 leukemia = system: K-562 leukemia
KM12 colon = system: KM12 colon
LOX IMVI melanoma = system: LOX IMVI melanoma
M14 melanoma = system: M14 melanoma
MALME-3M melanoma = system: MALME-3M melanoma
MCF7 breast = system: MCF7 breast
MDA-MB-231 breast = system: MDA-MB-231 breast
MDA-MB-435 = system: MDA-MB-435
MOLT-4 leukemia = system: MOLT-4 leukemia
NCI-H226 lung = system: NCI-H226 lung
NCI-H23 lung = system: NCI-H23 lung
NCI-H460 lung = system: NCI-H460 lung
NCI-H522 lung = system: NCI-H522 lung
NCI/ADR-RES ovarian = system: NCI/ADR-RES ovarian
OVCAR-3 ovarian = system: OVCAR-3 ovarian
OVCAR-4 ovarian = system: OVCAR-4 ovarian
OVCAR-5 ovarian = system: OVCAR-5 ovarian
OVCAR-8 ovarian = system: OVCAR-8 ovarian
PC-3 prostate = system: PC-3 prostate
RPMI-8226 leukemia = system: RPMI-8226 leukemia
RXF 393 renal = system: RXF 393 renal
SF-268 CNS = system: SF-268 CNS
SF-295 CNS = system: SF-295 CNS
SF-539 CNS = system: SF-539 CNS
SK-MEL-2 melanoma = system: SK-MEL-2 melanoma
SK-MEL-28 melanoma = system: SK-MEL-28 melanoma
SK-MEL-5 melanoma = system: SK-MEL-5 melanoma
SK-OV-3 ovarian = system: SK-OV-3 ovarian
SN12C renal = system: SN12C renal
SNB-19 CNS = system: SNB-19 CNS
SNB-75 CNS = system: SNB-75 CNS
SR leukemia = system: SR leukemia
SW-620 colon = system: SW-620 colon
T-47D breast = system: T-47D breast
TK-10 renal = system: TK-10 renal
U251 CNS = system: U251 CNS
UACC-257 melanoma = system: UACC-257 melanoma
UACC-62 melanoma = system: UACC-62 melanoma
UO-31 renal = system: UO-31 renal

Structure (SMILES): CN1CCN(c2nc(C3=C(c4c[nH]c5ccccc45)C(=O)NC3=O)c3ccccc3n2)CC1
- GI50 (786-0 renal): 15.7 µM and 18.3 µM
- TGI (786-0 renal): 39.6 µM and 36.9 µM
- GI50 (A498 renal): 12.9 µM and 15.4 µM
- TGI (A498 renal): 24.3 µM and 29.7 µM
- GI50 (A549 NSCLC): 21.2 µM and 18.4 µM
- TGI (A549 NSCLC): 65 µM and 48.9 µM
- GI50 (ACHN renal): 14.9 µM and 20.4 µM
- TGI (ACHN renal): 52.4 µM and > 100 µM
- GI50 (BT-549 breast): 8.91 µM and 14.3 µM
- TGI (BT-549 breast): 20.8 µM and 29.3 µM
- GI50 (CAKI-1 renal): 9.47 µM and 16.9 µM
- TGI (CAKI-1 renal): 54.5 µM and 46.1 µM
- GI50 (CCRF-CEM leukemia): 28.9 µM and 14 µM
- TGI (CCRF-CEM leukemia): 65 µM and 62.8 µM
- GI50 (COLO 205 colon): 8 µM and 11.4 µM
- TGI (COLO 205 colon): 17.3 µM and 24.5 µM
- GI50 (DU-145 prostate): 23.3 µM and 17.9 µM
- TGI (DU-145 prostate): 65 µM and 38 µM
- GI50 (EKVX NSCLC): 20.4 µM
- TGI (EKVX NSCLC): 65 µM
- GI50 (HCC-2998 colon): 11.2 µM and 19 µM
- TGI (HCC-2998 colon): 22.6 µM and 36.7 µM
- GI50 (HCT-116 colon): 10.3 µM and 9.78 µM
- TGI (HCT-116 colon): 31.9 µM and 37.9 µM
- GI50 (HCT-15 colon): 12.9 µM and 19.5 µM
- TGI (HCT-15 colon): 60.2 µM and > 100 µM
- GI50 (HL-60(TB) leukemia): 12.3 µM and 15.1 µM
- TGI (HL-60(TB) leukemia): 36.6 µM and 35.6 µM
- GI50 (HOP-62 NSCLC): 13.6 µM and 19.8 µM
- TGI (HOP-62 NSCLC): 65 µM and 42.9 µM
- GI50 (HOP-92 NSCLC): 30.5 µM and 4.23 µM
- TGI (HOP-92 NSCLC): 65 µM and 17.4 µM
- GI50 (HS 578T breast): 9.01 µM and 14.6 µM
- TGI (HS 578T breast): 27 µM and 38.3 µM
- GI50 (HT29 colon): 14 µM and 12.3 µM
- TGI (HT29 colon): 65 µM and 43.4 µM
- GI50 (IGROV1 ovarian): 21.4 µM and 21 µM
- TGI (IGROV1 ovarian): 65 µM and 41.3 µM
- GI50 (K-562 leukemia): 11.9 µM and 12.6 µM
- TGI (K-562 leukemia): 65 µM and 49.2 µM
- GI50 (KM12 colon): 4.43 µM and 4.8 µM
- TGI (KM12 colon): 65 µM and 24.3 µM
- GI50 (LOX IMVI melanoma): 13.1 µM and 17.3 µM
- TGI (LOX IMVI melanoma): 24.5 µM and 36.4 µM
- GI50 (M14 melanoma): 10.5 µM and 17 µM
- TGI (M14 melanoma): 20.5 µM and 37.6 µM
- GI50 (MALME-3M melanoma): 10 µM and 10.2 µM
- TGI (MALME-3M melanoma): 19.9 µM and 24.3 µM
- GI50 (MCF7 breast): 10.1 µM and 16.6 µM
- TGI (MCF7 breast): 27.9 µM and 40 µM
- GI50 (MDA-MB-231 breast): 22.2 µM and 17.3 µM
- TGI (MDA-MB-231 breast): 60.6 µM and 39.4 µM
- GI50 (MDA-MB-435): 9.08 µM and 12.4 µM
- TGI (MDA-MB-435): 19.4 µM and 26.1 µM
- GI50 (MOLT-4 leukemia): 7.61 µM and 10.2 µM
- TGI (MOLT-4 leukemia): 35.9 µM and 54.8 µM
- GI50 (NCI-H226 lung): 12.4 µM and 28.3 µM
- TGI (NCI-H226 lung): 37.9 µM and 75.3 µM
- GI50 (NCI-H23 lung): 14.8 µM and 17.6 µM
- TGI (NCI-H23 lung): 39.9 µM and 41.4 µM
- GI50 (NCI-H460 lung): 15.2 µM and 19.2 µM
- TGI (NCI-H460 lung): 33.4 µM and 35.9 µM
- GI50 (NCI-H522 lung): 11.3 µM and 15.1 µM
- TGI (NCI-H522 lung): 23.7 µM and 32.9 µM
- GI50 (NCI/ADR-RES ovarian): 25.4 µM
- TGI (NCI/ADR-RES ovarian): 65 µM
- GI50 (OVCAR-3 ovarian): 16.2 µM and 19.4 µM
- TGI (OVCAR-3 ovarian): 44.8 µM and 41.6 µM
- GI50 (OVCAR-4 ovarian): 18.9 µM and 16.2 µM
- TGI (OVCAR-4 ovarian): 65 µM and 69.1 µM
- GI50 (OVCAR-5 ovarian): 28.7 µM and 34.5 µM
- TGI (OVCAR-5 ovarian): 65 µM and > 100 µM
- GI50 (OVCAR-8 ovarian): 17.2 µM and 18.4 µM
- TGI (OVCAR-8 ovarian): 65 µM and 57.5 µM
- GI50 (PC-3 prostate): 27.2 µM and 18.3 µM
- TGI (PC-3 prostate): 65 µM and 43.6 µM
- GI50 (RPMI-8226 leukemia): 12.6 µM
- TGI (RPMI-8226 leukemia): 37.6 µM
- GI50 (RXF 393 renal): 12.8 µM and 16.3 µM
- TGI (RXF 393 renal): 22.6 µM and 31.2 µM
- GI50 (SF-268 CNS): 17.2 µM and 17.7 µM
- TGI (SF-268 CNS): 40.6 µM and 36.6 µM
- GI50 (SF-295 CNS): 12.2 µM and 19.6 µM
- TGI (SF-295 CNS): 25.9 µM and 37.8 µM
- GI50 (SF-539 CNS): 10.5 µM and 16.8 µM
- TGI (SF-539 CNS): 19.7 µM and 32.9 µM
- GI50 (SK-MEL-2 melanoma): 12.8 µM and 20.2 µM
- TGI (SK-MEL-2 melanoma): 25.8 µM and 38.8 µM
- GI50 (SK-MEL-28 melanoma): 11.2 µM and 17.7 µM
- TGI (SK-MEL-28 melanoma): 20.8 µM and 32.8 µM
- GI50 (SK-MEL-5 melanoma): 11.2 µM and 12.6 µM
- TGI (SK-MEL-5 melanoma): 20.3 µM and 26 µM
- GI50 (SK-OV-3 ovarian): 19.5 µM and 16.2 µM
- TGI (SK-OV-3 ovarian): 65 µM and 45.9 µM
- GI50 (SN12C renal): 9.03 µM and 12.9 µM
- TGI (SN12C renal): 28.5 µM and 35.5 µM
- GI50 (SNB-19 CNS): 27.2 µM and 23.3 µM
- TGI (SNB-19 CNS): 65 µM and 49.2 µM
- GI50 (SNB-75 CNS): 4.91 µM and 5.65 µM
- TGI (SNB-75 CNS): 17.5 µM and 21.6 µM
- GI50 (SR leukemia): 11.6 µM
- TGI (SR leukemia): 36.2 µM
- GI50 (SW-620 colon): 19.8 µM and 19.1 µM
- TGI (SW-620 colon): 65 µM and 35.9 µM
- GI50 (T-47D breast): 15.6 µM and 26.3 µM
- TGI (T-47D breast): 53.4 µM and 82.4 µM
- GI50 (TK-10 renal): 27.9 µM and 17.5 µM
- TGI (TK-10 renal): 65 µM and 49 µM
- GI50 (U251 CNS): 22.5 µM and 13.4 µM
- TGI (U251 CNS): 65 µM and 27.7 µM
- GI50 (UACC-257 melanoma): 11.2 µM and 15.7 µM
- TGI (UACC-257 melanoma): 23.1 µM and 31.3 µM
- GI50 (UACC-62 melanoma): 14.4 µM and 16.2 µM
- TGI (UACC-62 melanoma): 35.2 µM and 30.7 µM
- GI50 (UO-31 renal): 8.2 µM and 11.7 µM
- TGI (UO-31 renal): 65 µM and 30.1 µM
